Laboratory results taken from US20240279207A1, “SUBSTITUTED ACYL SULFONAMIDES FOR TREATING CANCER” (The Broad Institute, Inc., priority 2020, published 2024).
Like-named read-outs stand apart in the source and are kept apart here.

Key:
[1] = tested on: ESR1 transcription in MVLN cells; experiment: MVLN reporter assay: repression of ESR1 transcription (luciferase signal); assay type: cell-based; conditions: Homo sapiens, luciferase signal after 24 h, read-out: MVLN reporter assay, IC50 [M] (arithmetic mean)
Source text: KAT6A controls transcription of the ESR1 gene in breast cancer cells. Compound treatment that interferes with this mechanism was quantified using MVLN cells. These cells constitutively express the ER and are stably transfected with the luciferase (LUC) reporter gene and the corresponding hormone responsive element derived from the 5′-flanking region of the Xenopus Vitellogenin A2 gene (Pons et al., 1990, Demirpense et al., 1993, Joyeux et al., 1993). The repressive effect on ERα transcription activity of a test chemical is directly related to the luciferase measured in the lysate of treated MVLN cells. […] Each sample was prepared as duplicate and rim wells were excluded. For luciferase signal determination 100 μl of a 1:1 mixture of Steadylite plus (Perkin Elmer; 6016759) and assay medium was added after 24 h for 15 minutes and measured in Victor X3 (Perkin Elmer). To exclude any effects caused by cell loss during the treatment, cell density was determined using Alamar Blue (Invitrogen; DAL1100). Prior to the luciferase measurement 10 μl Alamar Blue were added to each well and the plates were incubated for 2 h in the incubator. Then fluorescence was measured with Victor X3 (Perkin Elmer) at 530 nm/590 nm.

[2] = molecular target: T1, Recombinant human His-tagged Kat6a protein (amino acids 194-810) (Homo sapiens, UniProt Q92794); experiment: Kat6a activity assay (TR-FRET, acetylation of Histone-H4-derived peptide); assay type: biochemical; conditions: 60 mins at 22° C., 220 nM H4 peptide, 600 nM Acetyl Coenzyme A, read-out: KAT6A - DPF/HAT domain IC50 [mol/l] (arithmetic mean)
T1 construct: Kat6a protein (amino acids 194-810); His
T1 sequence (Q92794 194-810): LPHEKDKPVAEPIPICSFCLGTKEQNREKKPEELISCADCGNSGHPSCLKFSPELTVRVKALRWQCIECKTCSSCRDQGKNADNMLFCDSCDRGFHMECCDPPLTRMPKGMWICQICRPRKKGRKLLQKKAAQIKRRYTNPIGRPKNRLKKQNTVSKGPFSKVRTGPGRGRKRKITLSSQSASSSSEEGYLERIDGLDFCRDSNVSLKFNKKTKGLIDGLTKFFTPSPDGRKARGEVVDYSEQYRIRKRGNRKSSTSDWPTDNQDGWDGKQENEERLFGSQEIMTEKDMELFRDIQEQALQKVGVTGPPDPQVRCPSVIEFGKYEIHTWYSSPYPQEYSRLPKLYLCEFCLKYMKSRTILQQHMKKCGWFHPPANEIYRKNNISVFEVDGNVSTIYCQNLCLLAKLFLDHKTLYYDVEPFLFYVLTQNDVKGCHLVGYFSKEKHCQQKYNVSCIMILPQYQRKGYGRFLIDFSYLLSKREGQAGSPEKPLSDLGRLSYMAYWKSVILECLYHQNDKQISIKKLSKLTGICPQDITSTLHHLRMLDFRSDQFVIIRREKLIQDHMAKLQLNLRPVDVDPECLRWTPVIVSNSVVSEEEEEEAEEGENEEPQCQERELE
Description: Kat6a inhibitory activities of the compounds described in the present invention were quantified using a Fluorescence Resonance Energy Transfer (TR-FRET) assay which measures acetylation of a synthetic, biotinylated Histone-H4-derived peptide by the enzyme.
In this case 50 nl DMSO were used instead of compounds. […] IC50 values were determined by regression analysis based on a 4 parameter equation (minimum, maximum, ICM, Hill; Y=Max+(Min−Max)/(1+(X/ICso) Hill) using the Screener Software (Genedata).

Structure (SMILES) | IC50 ([1]; MVLN, 24 h) [M] | IC50 [2] [nM] | IC50 [1] [M]
O=C(NS(=O)(=O)c1cccc2cnccc12)c1cc2c(F)cc(N3CCC3)cc2o1 [Example 187, 6-(Azetidin-1-yl)-4-fluoro-N-(isoquinoline-5-sulfonyl)-1-benzofuran-2-carboxamide] | 1.85e-05 | 1530 | 
O=C(NS(=O)(=O)c1ccccc1/C=C/C(F)(F)F)c1cc2c(F)cc(N3CCC3)cc2o1 [Example 55, 6-(Azetidin-1-yl)-4-fluoro-N-{2-[(1E)-3,3,3-trifluoroprop-1-en-1-yl]benzene-1-sulfonyl}-1-benzofuran-2-carboxamide] | 1.69e-06 | 106 | 
CN(C)C(=O)c1ccccc1S(=O)(=O)NC(=O)c1cc2c(F)cc(N3CCC3)cc2o1 [Example 51, 6-(Azetidin-1-yl)-N-[2-(dimethylcarbamoyl)benzene-1-sulfonyl]-4-fluoro-1-benzofuran-2-carboxamide] | 1.51e-06 | 189 | 
COC(=O)CCc1ccccc1S(=O)(=O)NC(=O)c1cc2c(F)cc(N3CCC3)cc2o1 [Example 102, Methyl 3-(2-{[6-(azetidin-1-yl)-4-fluoro-1-benzofuran-2-carbonyl]sulfamoyl}phenyl)propanoate] | 4.07e-06 | 116 | 
CCn1nc(S(=O)(=O)NC(=O)c2cc3c(F)cc(N4CCC4)cc3o2)c2cccnc21 [Example 143, 6-(Azetidin-1-yl)-N-(1-ethyl-1H-pyrazolo[3,4-b]pyridine-3-sulfonyl)-4-fluoro-1-benzofuran-2-carboxamide] | 4.61e-06 | 226 | 
COC(=O)Cc1ccc2c(S(=O)(=O)NC(=O)c3cc4c(F)cc(N5CCC5)cc4o3)cccc2c1 [Example 57, Methyl (5-{[6-(azetidin-1-yl)-4-fluoro-1-benzofuran-2-carbonyl]sulfamoyl}naphthalen-2-yl)acetate] | 2.5e-06 | 120 | 
CCOc1ccccc1S(=O)(=O)NC(=O)c1cc2ccc(N3CC(OCC)C3)cc2o1 [Example 121, 6-(3-Ethoxyazetidin-1-yl)-N-(2-ethoxybenzene-1-sulfonyl)-1-benzofuran-2-carboxamide] | > 2e-05 | 13400 | 
CN(C(=O)Oc1ccccc1S(=O)(=O)NC(=O)c1cc2c(F)cc(N3CCC3)cc2o1)c1ccccc1 [Example 62, 2-{[6-(Azetidin-1-yl)-4-fluoro-1-benzofuran-2-carbonyl]sulfamoyl}phenyl methyl(phenyl)carbamate] |  |  | 6.43e-06
NS(=O)(=O)c1cc(OC(=O)c2cc3c(F)cc(N4CCC4)cc3o2)cc2ccccc12 [Example 98, 4-Sulfamoylnaphthalen-2-yl 6-(azetidin-1-yl)-4-fluoro-1-benzofuran-2-carboxylate] | > 2e-05 | > 20000 | 
CN(C)S(=O)(=O)c1ccc(Cl)c(S(=O)(=O)NC(=O)c2cc3c(F)cc(N4CCC4)cc3o2)c1 [Example 72, 6-(Azetidin-1-yl)-N-[2-chloro-5-(dimethylsulfamoyl)benzene-1-sulfonyl]-4-fluoro-1-benzofuran-2-carboxamide] | 1.89e-05 | 159 | 
CCOc1ccccc1S(=O)(=O)NC(=O)c1cc2c(F)cc(N3CCC3CNC(=O)OC)cc2o1 (racemic) [Example 105, Methyl {[1-{2-[(2-ethoxybenzene-1-sulfonyl)carbamoyl]-4-fluoro-1-benzofuran-6-yl}azetidin-2-yl]methyl}carbamate (rac)] | > 2e-05 | 1120 | 

Continued, in another order:

IC50 ([1]; MVLN, 24 h) [M] | IC50 [2] [nM] | Structure (SMILES) | IC50 [1] [M]
4.44e-07 | 110 | CCOc1c(F)cccc1S(=O)(=O)NC(=O)c1cc2c(F)cc(N3CCC3)cc2o1 [Example 206, 6-(azetidin-1-yl)-N-(2-ethoxy-3-fluoro-phenyl)sulfonyl-4-fluoro-benzofuran-2-carboxamide] | 
9.91e-07 | 218 | Cc1ccc(F)c(S(=O)(=O)NC(=O)c2cc3c(F)cc(N4CCC4)cc3o2)c1 [Example 43, 6-(Azetidin-1-yl)-4-fluoro-N-(2-fluoro-5-methylbenzene-1-sulfonyl)-1-benzofuran-2-carboxamide] | 
1.59e-07 | 36.4 | CCOc1ccc(OC(F)(F)F)cc1S(=O)(=O)NC(=O)c1cc2c(F)cc(N3CCC3)cc2o1 [Example 212, 6-(Azetidin-1-yl)-N-[2-ethoxy-5-(trifluoromethoxy)phenyl]sulfonyl-4-fluoro-benzofuran-2-carboxamide] | 
1.88e-07 | 26.8 | O=C(NS(=O)(=O)c1c[nH]c2ccccc12)c1cc2c(F)cc(N3CCC3)cc2o1 [Example 176, 6-(Azetidin-1-yl)-4-fluoro-N-(1H-indole-3-sulfonyl)-1-benzofuran-2-carboxamide] | 
1.58e-07 | 65.7 | Cc1ccc2cccnc2c1S(=O)(=O)NC(=O)c1cc2c(F)cc(N3CCC3)cc2o1 [Example 173, 6-(Azetidin-1-yl)-4-fluoro-N-(7-methylquinoline-8-sulfonyl)-1-benzofuran-2-carboxamide] | 
5.02e-07 | 34.9 | CCCOc1cccc(CCC)c1S(=O)(=O)NC(=O)c1cc2c(F)cc(N3CCC3)cc2o1 [Example 31, 6-(Azetidin-1-yl)-4-fluoro-N-(2-propoxy-6-propylbenzene-1-sulfonyl)-1-benzofuran-2-carboxamide] | 
1.62e-07 |  | COc1ccc(C2=CCN(C(=O)OC(C)(C)C)CC2)cc1S(=O)(=O)NC(=O)c1cc2c(F)cc(N3CCC3)cc2o1 [Example 197, tert-butyl 4-(3-{[6-(azetidin-1-yl)-4-fluoro-1-benzofuran-2-carbonyl]sulfamoyl}-4-methoxyphenyl)-3,6-dihydropyridine-1(2H)-carboxylate] | 
1.29e-06 | 281 | COCc1cccc(S(=O)(=O)NC(=O)c2cc3c(F)cc(N4CCC4)cc3o2)c1 [Example 48, 6-(Azetidin-1-yl)-4-fluoro-N-[3-(methoxymethyl)benzene-1-sulfonyl]-1-benzofuran-2-carboxamide] | 
7.04e-07 | 181 | Cc1noc(-c2ccccc2S(=O)(=O)NC(=O)c2cc3c(F)cc(N4CCC4)cc3o2)n1 [Example 37, 6-(Azetidin-1-yl)-4-fluoro-N-[2-(3-methyl-1,2,4-oxadiazol-5-yl)benzene-1-sulfonyl]-1-benzofuran-2-carboxamide] | 
1.41e-06 | 67.3 | CC(C)Nc1ccc(Cl)cc1S(=O)(=O)NC(=O)c1cc2c(F)cc(N3CCC3)cc2o1 [Example 49, 6-(Azetidin-1-yl)-N-{5-chloro-2-[(propan-2-yl)amino]benzene-1-sulfonyl}-4-fluoro-1-benzofuran-2-carboxamide] | 
3.16e-07 | 35.3 | O=C(NS(=O)(=O)c1csc2ccccc12)c1cc2c(F)cc(N3CCC3)cc2o1 [Example 178, 6-(Azetidin-1-yl)-N-(1-benzothiophene-3-sulfonyl)-4-fluoro-1-benzofuran-2-carboxamide] | 
8.48e-07 | 55.1 | COc1ccc2snnc2c1S(=O)(=O)NC(=O)c1cc2c(F)cc(N3CCC3)cc2o1 [Example 182, 6-(Azetidin-1-yl)-4-fluoro-N-(5-methoxy-1,2,3-benzothiadiazole-4-sulfonyl)-1-benzofuran-2-carboxamide] | 
1.93e-07 | 72.9 | CC1(C)COc2ccc(S(=O)(=O)NC(=O)c3cc4c(F)cc(N5CCC5)cc4o3)cc21 [Example 190, 6-(Azetidin-1-yl)-N-(3,3-dimethyl-2,3-dihydro-1-benzofuran-5-sulfonyl)-4-fluoro-1-benzofuran-2-carboxamide] | 
7.88e-07 |  | CC(C)Oc1cccc(Br)c1S(=O)(=O)NC(=O)c1cc2c(F)cc(N3CCC3)cc2o1 [Example 39, 6-(Azetidin-1-yl)-N-{2-bromo-6-[(propan-2-yl)oxy]benzene-1-sulfonyl}-4-fluoro-1-benzofuran-2-carboxamide] | 
1.69e-07 | 43.5 | O=C(NS(=O)(=O)c1c(F)cccc1OC1CCC1)c1cc2c(F)cc(N3CCC3)cc2o1 [Example 16, 6-(Azetidin-1-yl)-N-[2-(cyclobutyloxy)-6-fluorobenzene-1-sulfonyl]-4-fluoro-1-benzofuran-2-carboxamide] | 
1.01e-06 | 189 | CCc1noc(-c2ccccc2S(=O)(=O)NC(=O)c2cc3c(F)cc(N4CCC4)cc3o2)n1 [Example 44, 6-(Azetidin-1-yl)-N-[2-(3-ethyl-1,2,4-oxadiazol-5-yl)benzene-1-sulfonyl]-4-fluoro-1-benzofuran-2-carboxamide] | 
1.66e-07 | 18.9 | CC(Oc1ccccc1S(=O)(=O)NC(=O)c1cc2c(F)cc(N3CCC3)cc2o1)C(F)(F)F (racemic) [Example 13, 6-(Azetidin-1-yl)-4-fluoro-N-(2-{[-1,1,1-trifluoropropan-2-yl]oxy}benzene-1-sulfonyl)-1-benzofuran-2-carboxamide (rac)] | 
